According to patent US4442093A, “Method for administering 24,25-dihydroxycholecalciferol to persons suffering from hypercalcemia” (Kureha Kagaku Kogyo Kabushiki Kaisha, priority 1981, dated 1984):
Like-named read-outs stand apart in the source and are kept apart here.

Experiments:
[1] = tested on: calcium level in serum; conditions: healthy dog, continuous injection 20 min into thyroid artery; cited from earlier work
[2] = tested on: calcium level in serum; conditions: dog with hyper-parathyreosis, thyroid arterial route; cited from earlier work
[3] = tested on: magnesium level in serum; conditions: bilateral nephrectomy rats; cited from earlier work
[4] = tested on: calcium level in serum; conditions: normal person, 250 micrograms oral; cited from earlier work
[5] = 30-day repeated oral administration toxicity (Example 26); assay type: in vivo, ICR mouse; conditions: 1 mg/kg/day, 30 days
Experimental: 24R,25-(OH)2 -D3 was dissolved in Panacete® 810 containing 1% by weight of ethanol, and the solution was forcibly p.o. administered once a day for 30 continuous days to each male or female ICR mouse of the groups shown in Table 20 at each one of the daily dose rates also shown in Table 20.
As the control, Panacete 810 was solely and forcibly p.o. administered to the mice of the same strain once a day for 30 continuous days.

[6] = tested on: magnesium level in serum; conditions: thyroidectomized and parathyroidectomized rats, administered once; cited from earlier work
[7] = tested on: tumour; assay: Anti-tumour experiments using mouse and rat as the host; assay type: in vivo
[8] = tested on: blood sugar level; assay: Blood sugar in patients (Example 23); assay type: in vivo, human; conditions: patients suffering from glycosuria
Experimental: Three patients shown in Table 17 were treated by oral administration of a daily dose of 4 to 6 micrograms of 24R,25-(OH)2 -D3 in a form of the soft capsule composition obtained in Example 6 for 3 continuous weeks. After the completion of administration, the patient was fasted for a night and their blood specimen was collected at 11:00 a.m. in the next morning.
Effectiveness of reducing blood sugar level (ERBS) is calculated from the […]

[9] = tested on: calcium level in serum; conditions: patients suffering from hypocalcemia; cited from earlier work

C=C1CC[C@H](O)C/C1=C/C=C1\CCC[C@]2(C)[C@@H]([C@H](C)CCC(O)C(C)(C)O)CC[C@@H]12 (stereo partly shown) [24,25-(OH)2 -D3, 24,25-dihydroxycholecalciferol]
Calcium level in serum [1]: showed a temporary reduction | Calcium level in serum [2]: did not change the dog's calcium level in serum | magnesium level in serum [3]: did not affect significantly the magnesium level in serum | Calcium level in serum [4]: did not cause the significant change of calcium level | biochemical examination of the blood and autopsy [5]: any significant abnormal findings were not observed | magnesium clearance [6]: did not affect the magnesium level in serum thereof and the magnesium clearance thereof | magnesium level in serum [6]: did not affect the magnesium level in serum | anti-tumour effect in vivo [7]: anti-tumour effect of the compound was confirmed | blood sugar level [8]: significant reduction of the blood sugar level was observed | Calcium level in serum [9]: non of them reported the case where the calcium level in the patient's serum showed a significant change
